Data on nine compounds can be found in paper PMC8487040, “Detection of juvenile hormone agonists by a new reporter gene assay using yeast expressing Drosophila methoprene‐tolerant” (FEBS Open Bio, 2021).

As usually defined, the EC50 is the concentration giving half of the maximal effect.

In one assay the target is T1, Met–Tai (D. melanogaster Met co-expressed with Tai) (Drosophila melanogaster, UniProt Q9VYW2, T103P).
T1 construct: full-length Met ORF (codon 103 CCC, Pro); heterodimer; with Taiman
T1 sequence (Q9VYW2 1-716 T103P): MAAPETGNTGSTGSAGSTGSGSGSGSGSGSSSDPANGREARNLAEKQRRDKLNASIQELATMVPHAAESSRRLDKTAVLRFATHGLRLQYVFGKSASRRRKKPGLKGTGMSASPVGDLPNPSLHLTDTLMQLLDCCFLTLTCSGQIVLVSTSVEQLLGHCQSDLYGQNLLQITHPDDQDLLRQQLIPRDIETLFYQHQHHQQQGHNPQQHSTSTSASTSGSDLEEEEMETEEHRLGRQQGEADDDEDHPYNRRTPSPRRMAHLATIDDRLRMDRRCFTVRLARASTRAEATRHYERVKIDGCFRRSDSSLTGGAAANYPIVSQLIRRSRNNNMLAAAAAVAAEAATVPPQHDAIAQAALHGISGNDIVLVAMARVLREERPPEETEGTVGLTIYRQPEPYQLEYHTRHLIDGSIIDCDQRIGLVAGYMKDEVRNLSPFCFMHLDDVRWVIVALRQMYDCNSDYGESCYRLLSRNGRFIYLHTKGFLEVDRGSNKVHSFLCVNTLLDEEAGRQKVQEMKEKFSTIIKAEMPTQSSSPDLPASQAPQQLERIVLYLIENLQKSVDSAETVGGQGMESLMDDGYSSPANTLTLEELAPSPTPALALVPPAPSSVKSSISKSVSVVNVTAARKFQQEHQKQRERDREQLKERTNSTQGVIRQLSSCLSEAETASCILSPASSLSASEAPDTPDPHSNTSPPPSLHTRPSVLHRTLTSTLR
T1 sequence (Q9VLD9 1-2026 partner): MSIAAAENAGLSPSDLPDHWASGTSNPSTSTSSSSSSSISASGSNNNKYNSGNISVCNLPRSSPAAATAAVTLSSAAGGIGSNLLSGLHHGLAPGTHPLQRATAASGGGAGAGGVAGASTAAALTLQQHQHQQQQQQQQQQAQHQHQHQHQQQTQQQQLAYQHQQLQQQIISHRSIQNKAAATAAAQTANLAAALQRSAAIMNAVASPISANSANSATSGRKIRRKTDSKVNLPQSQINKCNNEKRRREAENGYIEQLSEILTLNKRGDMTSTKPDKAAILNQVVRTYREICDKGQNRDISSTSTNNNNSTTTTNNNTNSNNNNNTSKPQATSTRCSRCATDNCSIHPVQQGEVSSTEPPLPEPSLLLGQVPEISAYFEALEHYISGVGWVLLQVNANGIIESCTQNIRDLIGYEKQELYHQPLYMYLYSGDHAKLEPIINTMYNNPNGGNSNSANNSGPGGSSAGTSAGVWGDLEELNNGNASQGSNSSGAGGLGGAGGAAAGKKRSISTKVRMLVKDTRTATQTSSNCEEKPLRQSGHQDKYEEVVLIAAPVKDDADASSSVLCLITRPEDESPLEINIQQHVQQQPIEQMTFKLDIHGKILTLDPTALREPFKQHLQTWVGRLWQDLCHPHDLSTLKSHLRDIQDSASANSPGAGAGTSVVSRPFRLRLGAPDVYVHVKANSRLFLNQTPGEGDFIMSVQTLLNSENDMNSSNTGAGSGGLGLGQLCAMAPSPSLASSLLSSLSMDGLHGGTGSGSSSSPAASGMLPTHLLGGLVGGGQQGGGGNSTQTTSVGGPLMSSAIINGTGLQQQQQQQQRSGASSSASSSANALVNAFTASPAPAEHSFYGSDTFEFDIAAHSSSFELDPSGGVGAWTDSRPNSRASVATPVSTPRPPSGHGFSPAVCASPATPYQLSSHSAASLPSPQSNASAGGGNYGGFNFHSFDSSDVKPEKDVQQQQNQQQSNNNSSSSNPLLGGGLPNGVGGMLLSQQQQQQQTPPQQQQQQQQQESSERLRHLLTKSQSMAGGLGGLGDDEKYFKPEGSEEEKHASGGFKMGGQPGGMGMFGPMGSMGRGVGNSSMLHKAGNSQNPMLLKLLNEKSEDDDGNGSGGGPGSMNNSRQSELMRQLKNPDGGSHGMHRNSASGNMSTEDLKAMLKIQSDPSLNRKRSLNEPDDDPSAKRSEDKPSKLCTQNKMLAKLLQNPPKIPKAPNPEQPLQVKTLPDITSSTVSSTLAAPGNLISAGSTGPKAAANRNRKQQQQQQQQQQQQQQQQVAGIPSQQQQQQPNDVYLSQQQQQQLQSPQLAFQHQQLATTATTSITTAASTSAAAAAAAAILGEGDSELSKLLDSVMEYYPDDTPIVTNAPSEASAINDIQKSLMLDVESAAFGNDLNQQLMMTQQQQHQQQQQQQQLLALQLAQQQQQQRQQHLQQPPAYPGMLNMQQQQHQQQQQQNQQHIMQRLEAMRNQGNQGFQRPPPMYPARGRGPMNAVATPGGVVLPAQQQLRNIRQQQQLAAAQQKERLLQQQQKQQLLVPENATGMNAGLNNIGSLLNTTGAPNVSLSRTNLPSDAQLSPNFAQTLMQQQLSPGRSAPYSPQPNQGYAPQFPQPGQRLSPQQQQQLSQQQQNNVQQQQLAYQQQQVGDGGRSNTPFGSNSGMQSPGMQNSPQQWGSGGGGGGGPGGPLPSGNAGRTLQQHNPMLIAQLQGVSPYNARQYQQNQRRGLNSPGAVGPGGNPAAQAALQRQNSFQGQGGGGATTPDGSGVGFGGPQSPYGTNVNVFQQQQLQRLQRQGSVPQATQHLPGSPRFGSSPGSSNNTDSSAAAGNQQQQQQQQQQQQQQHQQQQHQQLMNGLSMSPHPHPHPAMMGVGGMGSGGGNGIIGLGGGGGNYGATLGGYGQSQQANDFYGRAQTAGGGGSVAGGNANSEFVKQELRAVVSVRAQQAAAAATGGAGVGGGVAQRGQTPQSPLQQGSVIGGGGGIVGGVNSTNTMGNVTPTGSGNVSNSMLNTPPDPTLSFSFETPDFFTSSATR
Put plainly: yeast lacZ reporter gene assay (beta-galactosidase, ONPG). Type of assay: cell-based.
Details: not given
From the text:
yeast lacZ reporter gene assay (beta-galactosidase, ONPG) on Met–Tai (D. melanogaster Met co-expressed with Tai)
(In general: Reporter assays use an easily measured gene product as a stand-in for the process of interest.)
Consider `CCOC(=O)/C=C(C)/C=C/C[C@@H](C)CCCC(C)C` [(S)‐hydroprene], for which the EC50 turned out to be 0.57 ± 0.15 µM.
`CCOC(=O)NCCOc1ccc(Oc2ccccc2)cc1` [Fenoxycarb]: a half-maximal response (EC50) required 0.003 ± 0.001 µM.
As for `CC/C(=C\C(=O)OC)CC/C=C(\CC)CC[C@H]1O[C@@]1(C)CC` [JH 0], the EC50 amounted to 0.213 ± 0.014 µM.
Turning to `COC(=O)/C=C(\C)CC/C=C(\C)CC[C@H]1OC1(C)C` [JH III], a half-maximal response (EC50) required 0.062 ± 0.005 µM.
`CC[C@]1(C)O[C@@H]1CC/C(C)=C/CC/C(C)=C/C(=O)OC` [JH II] came in with an EC50 of 0.05 ± 0.017 µM.
`CC/C(=C\CC/C(C)=C/C(=O)OC)CC[C@H]1O[C@@]1(C)CC` [JH I] came in with a half-maximal effective concentration (EC50) of 0.065 ± 0.011 µM.
The same measure, in the same setting: the same measure for `COC(C)(C)CCCC(C)C/C=C/C(C)=C/C(=O)OC(C)C` (stereo not drawn) [Methoprene]: 1.1 ± 0.23 µM; for `COC(=O)/C=C(\C)CC/C=C(\C)CCC=C(C)C` [Methyl farnesoate]: 0.16 ± 0.007 µM.

The assay is the same for the next values; noted with them: agonist; 30 °C, 18 h; Tai co-expressed; BmkJHRE x 2 reporter.
Compound `CC(COc1ccc(Oc2ccccc2)cc1)Oc1ccccn1` (stereo not drawn) [Pyriproxyfen] yielded an EC50 of 0.087 ± 0.012 µM.
